Values after ≈ are worked out from the molar mass of the structure shown. Where two headings read alike, the source gives them in different places.
Columns and labels:
ATCC reference strains = assay: Broth microdilution MIC, reference strains taken together; assay type: cell-based
Experimental: The MICs for TGC were determined under various conditions by broth microdilution using NCCLS procedures. The MHB was stored at 2° C., room temperature, anaerobically and with the addition of Oxyrase® to determine the effect of various conditions. Time Kill kinetics was used to confirm MIC differences observed with the broth microdilution for aged and fresh media results.
(§1) The in vitro activities of tigecycline and control antibiotics were determined by the broth microdilution method as recommended by the NCCLS. (National Committee for Clinical Laboratory Standards, 2003. Methods for Dilution Antimicrobial Susceptibility Tests for Bacteria That Grow Aerobically; Approved Standards: M7-A6, Sixth ed, vol. 23., National Committee for Clinical Laboratory Standards Wayne, Pa.) was used for the standard procedures. MBH with 5% lysed horse blood was used for testing S. pneumoniae and Haemophilus Test Medium was used for testing H. influenzae. Oxyrase® (Oxyrase Inc, Mansfield, Ohio) was used according to the manufacturer's instructions by adding 1 ml of Oxyrase® to 50 ml of media. Media age studies were performed by preparing MHB in multiple flasks, then storing the media under various conditions. MICs were usually performed in duplicate on each day of testing. Storage under anaerobic conditions was conducted in an anaerobic chamber (MACS MG 1000, Don Whitley Scientific LTD). The pH of the media was determined by pH meter (Corning 430). A comparison of the in vitro activity of tigecycline by agar and broth dilution methodolgies with and without Oxyrase® against clinical isolates is shown in Table 1.
To determine the effect of media age on the in vitro activity of tigecycline, MHB was prepared and stored at room temperature or 2° C. for 28 days. […] The aging of the media was slowed somewhat in the media stored at […] compared to the media stored at room temperature.

E. faecalis ATCC 29212 = assay: Broth microdilution MIC; assay type: cell-based, Enterococcus faecalis; settings: for MIC: Enterococcus faecalis
Experimental: The process for preparing susceptibility test medium are the following steps: • a. Preparing Mueller Hinton Broth II medium by adding 22 grams powdered media to 1.0 liter distilled water; • b. Autoclaving (121° C., 15 psi, 15 minutes) and cooling the medium; • c. Adding Oxyrase® up to about 10% final volume and keeping at 35-37° C. in an incubator for 30 minutes; • d. Adding about 50 μL to each well of a 96 well microtiter plate; • e. Weighing drug and adding broth to drug to bring up to about (standard 128 μg/ml); • f. Adding 50 μL of the drug to the first column of the titer plate; • g. Diluting by two-fold serial diluting across or down the plate. • h. Preparing a Prompt™ inoculum at 10^8 CFU/ml; • i. Diluting inoculum 1:100 in the broth at […] in 9.9 ml (1:100) is 10^6 colony forming units (CFU) forming the adjusted inoculum; • j. Adding 50 μL of the adjusted inoculum to the wells of the microtiter plate; • k. Incubating the plates at 35-37° C. for 18-22 hours; and • l. Reading, with the unaided eye, the MIC.
as §1

[1] = Table 8, E. faecalis ATCC 29212, Mueller Hinton Broth + Oxyrase, n = 240
[2] = Table 8, E. faecalis ATCC 29212, Mueller Hinton Broth, n = 320
[3] = Table 9, E. faecalis ATCC 29212, Mueller Hinton Broth + Oxyrase, n = 31
[4] = Table 9, E. faecalis ATCC 29212, Mueller Hinton Broth, n = 96

## CN(C)c1cc(NC(=O)CNC(C)(C)C)c(O)c2c1C[C@H]1C[C@H]3[C@H](N(C)C)C(O)=C(C(N)=O)C(=O)[C@@]3(O)C(O)=C1C2=O [Tigecycline, tigecycline]
ATCC reference strains; ATCC reference organisms, MHB stored 28 days, Table 4
  Increase in the MICs over the four week period of media storage: 3 to 4 dilution
ATCC reference strains; Table 3
  MICs in aged media supplemented with Oxyrase compared with fresh media: nearly identical to those determined in fresh media
  MICs in fresh media supplemented with Oxyrase compared with unsupplemented fresh media: not significantly different
ATCC reference strains; Table 6
  MICs in commercially prepared media and media aged 2 weeks at RT under room air higher than in freshly prepared media: 1-4 dilutions
  MICs in media stored under anaerobic conditions compared with fresh media: nearly identical to the results obtained in fresh media
ATCC reference strains; reference strains
  More active in freshly prepared media than in commercially prepared and aged media: 2 to 3 dilution
ATCC reference strains; reference strains, addition of Oxyrase
  MIC: 0.06 to 0.25 µg/mL (≈ 0.102 to 0.427 µM)
ATCC reference strains; reference strains, aged medium stored under anaerobic conditions prior to testing
  MIC: 0.03 to 0.12 µg/mL (≈ 0.0512 to 0.205 µM)
ATCC reference strains; reference strains, commercially prepared and aged (7 day old) media from powder
  MIC: 0.12 to 0.25 µg/mL (≈ 0.205 to 0.427 µM)
ATCC reference strains; reference strains, freshly prepared media
  MIC: 0.03 to 0.12 µg/mL (≈ 0.0512 to 0.205 µM)
E. faecalis ATCC 29212; ATCC29212, 0 h, E. faecalis ATCC 29212, Day 0, Pre-prepared media, room temperature, N = 6
  MIC: 0.25 µg/mL (≈ 0.427 µM)
E. faecalis ATCC 29212; ATCC29212, 0 h, E. faecalis ATCC 29212, Day 0, media Fresh from Powder 2° C., N = 6
  MIC: 0.03 µg/mL (≈ 0.0512 µM)
E. faecalis ATCC 29212; ATCC29212, 0 h, E. faecalis ATCC 29212, Day 0, media Fresh from Powder, room temperature, N = 6
  MIC: 0.03 µg/mL (≈ 0.0512 µM)
E. faecalis ATCC 29212; ATCC29212, 24 h, E. faecalis ATCC 29212, Day 1, Pre-prepared media, room temperature, N = 6
  MIC: 0.25 µg/mL (≈ 0.427 µM)
E. faecalis ATCC 29212; ATCC29212, 24 h, E. faecalis ATCC 29212, Day 1, media Fresh from Powder 2° C., N = 6
  MIC: 0.03 µg/mL (≈ 0.0512 µM)
E. faecalis ATCC 29212; ATCC29212, 24 h, E. faecalis ATCC 29212, Day 1, media Fresh from Powder, room temperature, N = 6
  MIC: 0.03 to 0.06 µg/mL (≈ 0.0512 to 0.102 µM)
E. faecalis ATCC 29212; ATCC29212, 168 h, E. faecalis ATCC 29212, Day 7, Pre-prepared media, room temperature, N = 6
  MIC: 0.25 µg/mL (≈ 0.427 µM)
E. faecalis ATCC 29212; ATCC29212, 168 h, E. faecalis ATCC 29212, Day 7, media Fresh from Powder 2° C., N = 6
  MIC: 0.06 µg/mL (≈ 0.102 µM)
E. faecalis ATCC 29212; ATCC29212, 168 h, E. faecalis ATCC 29212, Day 7, media Fresh from Powder, room temperature, N = 6
  MIC: 0.12 to 0.25 µg/mL (≈ 0.205 to 0.427 µM)
E. faecalis ATCC 29212; ATCC29212, 336 h, E. faecalis ATCC 29212, Day 14, Pre-prepared media, room temperature, N = 6
  MIC: 0.25 to 0.5 µg/mL (≈ 0.427 to 0.854 µM)
E. faecalis ATCC 29212; ATCC29212, 336 h, E. faecalis ATCC 29212, Day 14, media Fresh from Powder 2° C., N = 6
  MIC: 0.25 µg/mL (≈ 0.427 µM)
E. faecalis ATCC 29212; ATCC29212, 336 h, E. faecalis ATCC 29212, Day 14, media Fresh from Powder, room temperature, N = 6
  MIC: 0.25 µg/mL (≈ 0.427 µM)
E. faecalis ATCC 29212; ATCC29212, 336 h, read-out: Minimal Inhibitory Concentration, E. faecalis ATCC29212, media Aged Aerobic (2 weeks at RT under room air), N = 4
  MIC: 0.25 µg/mL (≈ 0.427 µM)
E. faecalis ATCC 29212; ATCC29212, 504 h, E. faecalis ATCC 29212, Day 21, Pre-prepared media, room temperature, N = 6
  MIC: 0.25 to 0.5 µg/mL (≈ 0.427 to 0.854 µM)
E. faecalis ATCC 29212; ATCC29212, 504 h, E. faecalis ATCC 29212, Day 21, media Fresh from Powder 2° C., N = 6
  MIC: 0.25 µg/mL (≈ 0.427 µM)
E. faecalis ATCC 29212; ATCC29212, 504 h, E. faecalis ATCC 29212, Day 21, media Fresh from Powder, room temperature, N = 6
  MIC: 0.25 µg/mL (≈ 0.427 µM)
E. faecalis ATCC 29212; ATCC29212, 672 h, E. faecalis ATCC 29212, Day 28, Pre-prepared media, room temperature, N = 6
  MIC: 0.25 to 0.5 µg/mL (≈ 0.427 to 0.854 µM)
E. faecalis ATCC 29212; ATCC29212, 672 h, E. faecalis ATCC 29212, Day 28, media Fresh from Powder 2° C., N = 6
  MIC: 0.12 to 0.25 µg/mL (≈ 0.205 to 0.427 µM)
E. faecalis ATCC 29212; ATCC29212, 672 h, E. faecalis ATCC 29212, Day 28, media Fresh from Powder, room temperature, N = 6
  MIC: 0.12 to 0.25 µg/mL (≈ 0.205 to 0.427 µM)
E. faecalis ATCC 29212; ATCC29212, read-out: Minimal Inhibitory Concentration (modal value), E. faecalis ATCC29212, Aged Media + Oxyrase, N = 8
  MIC: 0.12 µg/mL
E. faecalis ATCC 29212; ATCC29212, read-out: Minimal Inhibitory Concentration (modal value), E. faecalis ATCC29212, Aged media, N = 8
  MIC: 0.5 µg/mL (≈ 0.854 µM)
E. faecalis ATCC 29212; ATCC29212, read-out: Minimal Inhibitory Concentration (modal value), E. faecalis ATCC29212, Fresh Media + Oxyrase, N = 8
  MIC: 0.06 µg/mL
E. faecalis ATCC 29212; ATCC29212, read-out: Minimal Inhibitory Concentration (modal value), E. faecalis ATCC29212, Freshly Prepared Media, N = 8
  MIC: 0.06 to 0.12 µg/mL (≈ 0.102 to 0.205 µM)
E. faecalis ATCC 29212; ATCC29212, read-out: Minimal Inhibitory Concentration, E. faecalis ATCC 29212, 2% Oxyrase
  MIC: 0.03 µg/mL (≈ 0.0512 µM)
E. faecalis ATCC 29212; ATCC29212, read-out: Minimal Inhibitory Concentration, E. faecalis ATCC29212, Aged Media + Oxyrase, N = 8
  MIC: 0.12 µg/mL
E. faecalis ATCC 29212; ATCC29212, read-out: Minimal Inhibitory Concentration, E. faecalis ATCC29212, Aged media, N = 8
  MIC: 0.25 to 0.5 µg/mL (≈ 0.427 to 0.854 µM)
E. faecalis ATCC 29212; ATCC29212, read-out: Minimal Inhibitory Concentration, E. faecalis ATCC29212, Commercially Prepared media, N = 4
  MIC: 0.12 to 0.25 µg/mL (≈ 0.205 to 0.427 µM)
E. faecalis ATCC 29212; ATCC29212, read-out: Minimal Inhibitory Concentration, E. faecalis ATCC29212, Fresh Media + Oxyrase, N = 8
  MIC: 0.06 µg/mL
E. faecalis ATCC 29212; ATCC29212, read-out: Minimal Inhibitory Concentration, E. faecalis ATCC29212, Freshly Prepared Media, N = 8
  MIC: 0.06 to 0.12 µg/mL (≈ 0.102 to 0.205 µM)
E. faecalis ATCC 29212; ATCC29212, read-out: Minimal Inhibitory Concentration, E. faecalis ATCC29212, Freshly Prepared media, N = 4
  MIC: 0.03 µg/mL (≈ 0.0512 µM)
E. faecalis ATCC 29212; ATCC29212, read-out: Minimal Inhibitory Concentration, E. faecalis ATCC 29212, MHB II + 0.05% Catalase
  MIC: 0.5 µg/mL
E. faecalis ATCC 29212; ATCC29212, read-out: Minimal Inhibitory Concentration, E. faecalis ATCC 29212, MHB II + 0.05% L-ascorbic Acid
  MIC: 1 µg/mL
E. faecalis ATCC 29212; ATCC29212, read-out: Minimal Inhibitory Concentration, E. faecalis ATCC 29212, MHB II + 0.05% L-cysteine
  MIC: 0.12 µg/mL
E. faecalis ATCC 29212; ATCC29212, read-out: Minimal Inhibitory Concentration, E. faecalis ATCC 29212, MHB II + 0.05% Sodium Pyruvate
  MIC: 0.25 µg/mL
E. faecalis ATCC 29212; ATCC29212, read-out: Minimal Inhibitory Concentration, E. faecalis ATCC 29212, MHB II + 0.05% Thioglycolate
  MIC: 0.12 µg/mL
E. faecalis ATCC 29212; ATCC29212, read-out: Minimal Inhibitory Concentration, E. faecalis ATCC 29212, MHB II + 2% Oxyrase
  MIC: 0.03 to 0.06 µg/mL
E. faecalis ATCC 29212; ATCC29212, read-out: Minimal Inhibitory Concentration, E. faecalis ATCC 29212, Mueller Hinton Broth II (Fresh)
  MIC: 0.06 to 0.12 µg/mL (≈ 0.102 to 0.205 µM)
E. faecalis ATCC 29212; ATCC29212, read-out: Minimal Inhibitory Concentration, E. faecalis ATCC 29212, No Oxyrase
  MIC: 0.25 µg/mL (≈ 0.427 µM)
E. faecalis ATCC 29212; ATCC29212, read-out: Minimal Inhibitory Concentration, E. faecalis ATCC29212, media Aged Anaerobic, N = 4
  MIC: 0.03 µg/mL (≈ 0.0512 µM)
E. faecalis ATCC 29212; [1]
  Number of Occurrences of MIC 0.03 ug/ml: 5
  Number of Occurrences of MIC 0.06 ug/ml: 203
  Number of Occurrences of MIC 0.12 ug/ml: 28
  Number of Occurrences of MIC 0.25 ug/ml: 2
  Number of Occurrences of MIC 0.5 ug/ml: 1
  Number of Occurrences of MIC 1 ug/ml: 1
E. faecalis ATCC 29212; [2]
  Number of Occurrences of MIC 0.06 ug/ml: 1
  Number of Occurrences of MIC 0.12 ug/ml: 96
  Number of Occurrences of MIC 0.25 ug/ml: 140
  Number of Occurrences of MIC 0.5 ug/ml: 16
  Number of Occurrences of MIC 1 ug/ml: 64
  Number of Occurrences of MIC 2 ug/ml: 3
E. faecalis ATCC 29212; [3]
  Number of Occurrences of MIC 0.03 ug/ml: 6
  Number of Occurrences of MIC 0.06 ug/ml: 14
  Number of Occurrences of MIC 0.12 ug/ml: 11
E. faecalis ATCC 29212; [4]
  Number of Occurrences of MIC 0.12 ug/ml: 25
  Number of Occurrences of MIC 0.25 ug/ml: 52
  Number of Occurrences of MIC 0.5 ug/ml: 19
